Assay results reported in patent US5389663A, “1-(1h-1,2,4-triazole-yl)-2-propanol compounds” (Takeda Chemical Industries, Ltd., priority 1991, dated 1995).

Columns and labels:
[1] = system: Candida albicans; test: Protective effect against Candida albicans infection in mice; assay type: in vivo, Crj:CDF1 mice; conditions: 168 h, minimum lethal dose of Candida albicans iv, drug once immediately after infection, survival 7 days after infection
Text: Test Method: Five-week old Crj:CDF1 mice were inoculated with the minimum lethal dose of Candida albicans intravenously. The test drug was given once immediately after infection. The effectiveness of the drug was expressed in ED50 values calculated by the Reed and Muench method from the survival rate 7 days after infection.

[2] = system: Candida albicans IFO 0583; test: Paper disc agar diffusion, growth inhibition zone, Candida albicans IFO 0583; assay type: cell-based; conditions: Table 5, Medium A, 28° C., two-day culture, 1000 μ/ml, 8 mm disc; for zone of inhibition at 1000 µg/mL: Candida albicans, IFO0583, 48 h, read-out: Diameter of growth-inhibition zone
Method: Evaluation of the antifungal activities of the compound of formula (I) was conducted by the following method: a sheet of filter paper disc (manufactured by Toyo Seisakusho, 8 mm in diameter) soaked in a […] solution of a compound of formula (I) in methanol was placed on an agar plate containing various fungi, which was incubated at 28° C. for two days, and the diameter of the growth inhibition zone around the filter paper disc was measured. The following culture media were used: A: yeast nitrogen base agar medium (pH 7.0) B: Sabouraud agar medium
cpd. No. (Medium A, 28° C., two-day culture)

Compound | ED50 ([1]; po) | Diameter of growth-inhibition zone [2] | zone of inhibition at 1000 µg/mL [2] | ED50 ([1]; sc)
CC(=C(Cn1cncn1)c1ccc(F)cc1F)S(=O)(=O)N(C)C (single isomer, unassigned) [Compound 35, N,N-dimethyl-3-(2,4-difluorophenyl)-4-(1H-1,2,4-triazol-1-yl)-2-butene-2-sulfonamide] | 20 mg/kg | 30 mm |  | 
CCCCNS(=O)(=O)[C@H](C)[C@](O)(Cn1cncn1)c1ccc(F)cc1F [Compound 4, N-butyl-[(2R,3R)-3-(2,4-difluorophenyl)-3-hydroxy-4-(1H-1,2,4-triazol-1-yl)-2-butane]sulfonamide] | 7.07 mg/kg |  | 40 mm | 
C[C@H]([C@](O)(Cn1cncn1)c1ccc(F)cc1F)S(=O)(=O)NC1CCCCC1 [Compound 6, N-cyclohexyl-[(2R,3R)-3(2,4-difluorophenyl)-3-hydroxy-4-(1H-1,2,4-triazol-1-yl)-2-butane]sulfonamide] | 7.07 mg/kg |  | 40 mm | 
C[C@H]([C@](O)(Cn1cncn1)c1ccc(F)cc1F)S(=O)(=O)N1CCOCC1 [Compound 8, 4-[(2R,3R)-3-(2,4-difluorophenyl)-3-hydroxy-4-(1H-1,2,4-triazol-1-yl)-2-butylsulfonyl]morpholine] | 20 mg/kg |  | 40 mm | 28.3 mg/kg
C[C@H]([C@](O)(Cn1cncn1)c1ccc(F)cc1F)S(=O)(=O)NC1CC1 [Compound 10, N-cyclopropyl-[(2R,3R)-3-(2,4-difluorophenyl)-3-hydroxy-4-(1H-1,2,4-triazol-1-yl)-2-butane]sulfonamide] | 7.07 mg/kg |  | 35 mm | 14.1 mg/kg
CNS(=O)(=O)[C@H](C)[C@](O)(Cn1cncn1)c1ccc(F)cc1F [Compound 12, N-methyl-[(2R,3R)-3-(2,4-difluorophenyl)-3-hydroxy-4(1H -1,2,4-triazol-1-yl)-2-butane]sulfonamide] | 5 mg/kg |  | 37 mm | 
CCNS(=O)(=O)[C@H](C)[C@](O)(Cn1cncn1)c1ccc(F)cc1F [Compound 14, N-ethyl-[(2R,3R)-3-(2,4-difluorophenyl)-3-hydroxy-4-(1H-1,2,4-triazol-1-yl)-2-butane]sulfonamide] | 5 mg/kg |  | 38 mm | 
CCCNS(=O)(=O)[C@H](C)[C@](O)(Cn1cncn1)c1ccc(F)cc1F [Compound 16, N-propyl-[(2R,3R)-3-(2,4-difluorophenyl)-3-hydroxy-4-(1H-1,2,4-triazol-1-yl)-2butane]sulfonamide] | 5 mg/kg |  | 40 mm | 
C[C@H]([C@](O)(Cn1cncn1)c1ccc(F)cc1F)S(=O)(=O)NCC(F)(F)F [Compound 39, N-(2,2,2-trifluoroethyl)-[(2R,3R)-3-(2,4-difluorophenyl)-3-hydroxy-4-(1H-1,2,4-triazol-1-yl)-2-butane]sulfonamide] | 8 mg/kg |  | 40 mm | 
C[C@H]([C@](O)(Cn1cncn1)c1ccc(F)cc1F)S(=O)(=O)N(C)CC(F)(F)F [Compound 46, N-methyl-N-(2,2,2-trifluoroethyl)-[(2R,3R)-3-(2,4-difluorophenyl)-3-hydroxy-4-(1H-1,2,4-triazol-1-yl)-2-butane]sulfonamide] | 8 mg/kg |  | 45 mm | 
CCN(C)S(=O)(=O)[C@H](C)[C@](O)(Cn1cncn1)c1ccc(F)cc1F [Compound 48, N-ethyl-N-methyl[(2R,3R)-3-(2,4-difluorophenyl)-3-hydroxy-4-(1H-1,2,4-triazol-1-yl)-2-butane]sulfonamide] | 11.3 mg/kg |  | 48 mm | 
C[C@@H](NS(C)(=O)=O)[C@](O)(Cn1cncn1)c1ccc(F)cc1F [Compound 49, N-[(2R,3R)-3-(2,4-difluorophenyl)-3-hydroxy-4-(1H-1,2,4-triazol-1-yl)-2-butyl]methanesulfonamide] | 1.8 mg/kg |  | 30 mm | 
C[C@@H](NS(=O)(=O)c1ccc([N+](=O)[O-])cc1)[C@](O)(Cn1cncn1)c1ccc(F)cc1F [Compound 51] | 8 mg/kg |  | 38 mm | 
C[C@@H](N(C)S(C)(=O)=O)[C@](O)(Cn1cncn1)c1ccc(F)cc1F [Compound 53, N-[(2R,3R)-3-(2,4-difluorophenyl)-3-hydroxy-4-(1H-1,2,4-triazol-1-yl) -2-butyl]-N-methylmethanesulfornamide] | 3.5 mg/kg |  | 40 mm | 
C[C@H]([C@](O)(Cn1cncn1)c1ccc(F)cc1F)S(=O)(=O)N(C)C/C=C\C#CC(C)(C)C [Compound 69] |  |  | 42 mm | 
COc1ccc(N2CCN(S(=O)(=O)[C@H](C)[C@](O)(Cn3cncn3)c3ccc(F)cc3F)CC2)cc1 [Compound 72, 4-[(2R,3R)-3-(2,4-difluorophenyl)-3-hydroxy-4-(1H-1,2,4-triazol-1-yl)-2-butanesulfonyl]-1-(4-methoxyphenyl)piperazine] |  |  | 48 mm | 
C[C@H]([C@](O)(Cn1cncn1)c1ccc(F)cc1F)S(=O)(=O)N1CCN(c2ccccn2)CC1 [Compound 74, 4-[(2R,3R)-3-(2,4-difluorophenyl)-3-hydroxy-4-(1H-1,2,4-triazol-1-yl)-2-butanesulfonyl]-1-(2-pyridyl) piperazine] |  |  | 44 mm | 
C[C@H]([C@](O)(Cn1cncn1)c1ccc(F)cc1F)S(=O)(=O)N(C)c1ncccn1 [Compound 77, N-methyl-N-(2-pyrimidinyl)-[(2R,3R)-3-(2,4-difluorophenyl)-3-hydroxy-4-(1H-1,2,4-triazol-1-yl)-2-butane]sulfonamide] |  |  | 40 mm | 
C[C@H]([C@](O)(Cn1cncn1)c1ccc(F)cc1F)S(=O)(=O)N(C)Cc1ccccn1 [Compound 79] |  |  | 30 mm | 
Cc1ncsc1CCN(C)S(=O)(=O)[C@H](C)[C@](O)(Cn1cncn1)c1ccc(F)cc1F [Compound 80] |  |  | 40 mm | 
Cc1nnc(N(C)S(=O)(=O)[C@H](C)[C@](O)(Cn2cncn2)c2ccc(F)cc2F)s1 [Compound 81] |  |  | 40 mm | 
CSc1nnc(CN(C)S(=O)(=O)[C@H](C)[C@](O)(Cn2cncn2)c2ccc(F)cc2F)s1 [Compound 82] |  |  | 40 mm | 
CSc1nnc(CCN(C)S(=O)(=O)[C@H](C)[C@](O)(Cn2cncn2)c2ccc(F)cc2F)s1 [Compound 83] |  |  | 40 mm | 
C[C@H]([C@](O)(Cn1cncn1)c1ccc(F)cc1F)S(=O)(=O)N(C)CCc1nnc(S(C)(=O)=O)s1 [Compound 84] |  |  | 23 mm | 
C[C@H]([C@](O)(Cn1ccnc1)c1ccc(F)cc1F)S(=O)(=O)N(C)C [Compound 85, N,N-dimethyl-[(2R,3R)-3-(2,4-difluorophenyl)-3-hydroxy-4-(1-imidazolyl)-2-butane]sulfonamide] |  |  | 45 mm | 
C[C@@H](NS(=O)(=O)c1cccs1)[C@](O)(Cn1cncn1)c1ccc(F)cc1F [Compound 87] |  |  | 38 mm | 
C[C@@H](N(C)S(=O)(=O)c1nccn1C)[C@](O)(Cn1cncn1)c1ccc(F)cc1F [Compound 88] |  |  | 46 mm | 
CC(=O)Nc1nc(C)c(S(=O)(=O)N(C)[C@H](C)[C@](O)(Cn2cncn2)c2ccc(F)cc2F)s1 [Compound 89] |  |  | 35 mm | 
C[C@@H](N(C)S(=O)(=O)c1cccs1)[C@](O)(Cn1cncn1)c1ccc(F)cc1F [Compound 90] |  |  | 40 mm | 
C[C@H]([C@](O)(Cn1cncn1)c1ccc(F)cc1F)S(=O)(=O)N1CCN(c2ncncc2F)CC1 [Compound 92] |  |  | 53 mm | 
